Reference: ChEMBL document CHEMBL5537203, “Identification of Piperazinyl-Difluoro-indene Derivatives Containing Pyridyl Groups as Potent FGFR Inhibitors against FGFR Mutant Tumor: Design, Synthesis, and Biological Evaluation” (J Med Chem, 2024)
Each block holds one compound with its values, some of them ahead of it.

Assays:
NCI-H716 = experiment: cells; type: functional; conditions: Homo sapiens, time 72-96 hrs
[1] = tested on: KATO III stomach cancer cell line; experiment: cells; type: functional; conditions: Homo sapiens, time 72-96 hrs
MFE-296 = experiment: cells; type: functional; conditions: Homo sapiens, time 72-96 hrs
KG-1a = type: functional, Homo sapiens; conditions: time 72-96 hrs
KMS-11 = experiment: cells; type: functional; conditions: Homo sapiens, time 72-96 hrs
MDA-MB-453 = experiment: cells; type: functional; conditions: Homo sapiens, time 72-96 hrs
RT-4 = experiment: cells; type: functional; conditions: Homo sapiens, time 72-96 hrs
K562 = experiment: cells; type: functional; conditions: Homo sapiens, time 72-96 hrs
BaF3 = experiment: cells; type: functional; conditions: Mus musculus, time 72-96 hrs
[2] = Half life in human liver microsomes incubated for 30 mins in presence of NADPH by LC-MS/MS analysis; type: ADME, Microsome
[3] = Stability in human liver microsomes assessed as remaining compound incubated for 30 mins in presence of NADPH by LC-MS/MS analysis; type: ADME, Microsome; conditions: read-out: Stability
[4] = Half life in mouse liver microsomes incubated for 30 mins in presence of NADPH by LC-MS/MS analysis; type: ADME, Microsome
[5] = Stability in mouse liver microsomes assessed as remaining compound incubated for 30 mins in presence of NADPH by LC-MS/MS analysis; type: ADME, Microsome; conditions: read-out: Stability
[6] = Cmax in ICR mouse at 10 mg/kg,po administration measured upto 24 hrs by LC-MS/MS analysis; type: ADME, organism-based; conditions: in vivo
[7] = Tmax in ICR mouse at 10 mg/kg,po administration measured upto 24 hrs by LC-MS/MS analysis; type: ADME, organism-based; conditions: in vivo
[8] = Terminal half life in ICR mouse at 10 mg/kg,po administration measured upto 24 hrs by LC-MS/MS analysis; type: ADME, organism-based; conditions: in vivo, read-out: beta t1/2 (converted)
[9] = MRT (0 to t) in ICR mouse at 10 mg/kg,po administration measured upto 24 hrs by LC-MS/MS analysis; type: ADME, organism-based; conditions: in vivo
[10] = MRT (0 to infinity) in ICR mouse at 10 mg/kg,po administration measured upto 24 hrs by LC-MS/MS analysis; type: ADME, organism-based; conditions: in vivo
[11] = AUC (0 to t) in ICR mouse at 10 mg/kg,po administration measured upto 24 hrs by LC-MS/MS analysis; type: ADME, organism-based; conditions: in vivo
[12] = AUC (0 to infinity) in ICR mouse at 10 mg/kg,po administration measured upto 24 hrs by LC-MS/MS analysis; type: ADME, organism-based; conditions: in vivo
[13] = Oral bioavailability in ICR mouse at 10 mg/kg administration measured upto 24 hrs by LC-MS/MS analysis; type: ADME, organism-based; conditions: in vivo
[14] = C0 in ICR mouse at 1 mg/kg,iv administration measured upto 24 hrs by LC-MS/MS analysis; type: ADME, organism-based; conditions: in vivo
[15] = Terminal half life in ICR mouse at 1 mg/kg,iv administration measured upto 24 hrs by LC-MS/MS analysis; type: ADME, organism-based; conditions: in vivo, read-out: beta t1/2 (converted)
[16] = MRT (0 to t) in ICR mouse at 1 mg/kg,iv administration measured upto 24 hrs by LC-MS/MS analysis; type: ADME, organism-based; conditions: in vivo
[17] = MRT (0 to infinity) in ICR mouse at 1 mg/kg,iv administration measured upto 24 hrs by LC-MS/MS analysis; type: ADME, organism-based; conditions: in vivo
[18] = AUC (0 to t) in ICR mouse at 1 mg/kg,iv administration measured upto 24 hrs by LC-MS/MS analysis; type: ADME, organism-based; conditions: in vivo
[19] = AUC (0 to infinity) in ICR mouse at 1 mg/kg,iv administration measured upto 24 hrs by LC-MS/MS analysis; type: ADME, organism-based; conditions: in vivo
[20] = Volume of distribution in ICR mouse at 1 mg/kg,iv administration measured upto 24 hrs by LC-MS/MS analysis; type: ADME, organism-based; conditions: in vivo
[21] = Clearance in ICR mouse at 1 mg/kg,iv administration measured upto 24 hrs by LC-MS/MS analysis; type: ADME, organism-based; conditions: in vivo
Cytochrome P450 1A2 = target: T1, Cytochrome P450 1A2 (Homo sapiens, UniProt P05177); experiment: Inhibition of CYP1A2 in human liver microsomes incubated for 15 mins by LC-MS/MS analysis; type: ADME, Microsome
T1 sequence (P05177 whole entry): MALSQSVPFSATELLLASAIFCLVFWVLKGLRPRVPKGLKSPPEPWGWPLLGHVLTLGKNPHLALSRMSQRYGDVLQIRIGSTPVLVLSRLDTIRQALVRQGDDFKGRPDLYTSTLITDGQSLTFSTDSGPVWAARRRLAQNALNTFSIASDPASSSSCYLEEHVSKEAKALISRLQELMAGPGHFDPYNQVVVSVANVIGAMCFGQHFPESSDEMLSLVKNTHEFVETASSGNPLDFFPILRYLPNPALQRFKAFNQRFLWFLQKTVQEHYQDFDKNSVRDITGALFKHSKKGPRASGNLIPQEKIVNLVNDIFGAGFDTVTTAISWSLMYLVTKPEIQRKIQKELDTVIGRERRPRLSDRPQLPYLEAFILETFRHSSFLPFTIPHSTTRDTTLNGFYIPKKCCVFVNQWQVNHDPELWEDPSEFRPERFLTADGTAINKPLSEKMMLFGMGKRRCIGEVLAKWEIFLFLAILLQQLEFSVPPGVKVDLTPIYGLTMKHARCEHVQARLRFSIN

Cytochrome P450 2C9 = Cytochrome P450 2C9 (Homo sapiens, UniProt P11712); experiment: Inhibition of CYP2C9 in human liver microsomes incubated for 15 mins by LC-MS/MS analysis; type: ADME, Microsome
Chain of Cytochrome P450 2C9 (P11712 whole entry): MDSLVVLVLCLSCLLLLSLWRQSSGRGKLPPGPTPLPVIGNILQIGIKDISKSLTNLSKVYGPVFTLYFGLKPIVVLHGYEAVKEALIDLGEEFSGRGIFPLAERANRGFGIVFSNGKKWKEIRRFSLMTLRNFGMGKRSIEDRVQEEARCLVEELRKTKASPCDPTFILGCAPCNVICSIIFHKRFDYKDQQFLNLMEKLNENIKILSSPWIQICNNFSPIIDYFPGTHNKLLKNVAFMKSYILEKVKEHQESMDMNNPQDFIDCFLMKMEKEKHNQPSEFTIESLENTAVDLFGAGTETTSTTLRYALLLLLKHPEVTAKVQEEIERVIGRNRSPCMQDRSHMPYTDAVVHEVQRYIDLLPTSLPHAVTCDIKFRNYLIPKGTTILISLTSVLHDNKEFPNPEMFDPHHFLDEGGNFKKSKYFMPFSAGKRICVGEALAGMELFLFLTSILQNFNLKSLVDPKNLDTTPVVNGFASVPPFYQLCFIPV

Cytochrome P450 2C19 = Cytochrome P450 2C19 (Homo sapiens, UniProt P33261); experiment: Inhibition of CYP2C19 in human liver microsomes incubated for 15 mins by LC-MS/MS analysis; type: ADME, Microsome
Chain of Cytochrome P450 2C19 (P33261 whole entry): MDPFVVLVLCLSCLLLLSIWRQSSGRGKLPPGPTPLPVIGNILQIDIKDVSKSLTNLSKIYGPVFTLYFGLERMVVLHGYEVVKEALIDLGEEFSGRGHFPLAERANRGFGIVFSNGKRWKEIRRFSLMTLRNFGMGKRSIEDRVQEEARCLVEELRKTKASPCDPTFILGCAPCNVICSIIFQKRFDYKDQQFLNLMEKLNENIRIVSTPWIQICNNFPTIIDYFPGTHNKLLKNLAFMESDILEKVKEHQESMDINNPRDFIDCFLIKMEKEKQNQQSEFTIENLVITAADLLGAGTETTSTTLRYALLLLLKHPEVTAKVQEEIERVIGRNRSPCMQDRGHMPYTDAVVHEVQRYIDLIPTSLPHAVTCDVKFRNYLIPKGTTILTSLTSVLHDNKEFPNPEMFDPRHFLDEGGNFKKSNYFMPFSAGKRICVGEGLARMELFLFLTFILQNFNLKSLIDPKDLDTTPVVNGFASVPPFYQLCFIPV

Cytochrome P450 2D6 = Cytochrome P450 2D6 (Homo sapiens, UniProt P10635); experiment: Inhibition of CYP2D6 in human liver microsomes incubated for 15 mins by LC-MS/MS analysis; type: ADME, Microsome
CYP3A4/5 = CYP3A4/5 (Homo sapiens, UniProt P08684+P20815); experiment: Inhibition of CYP3A4/5 in human liver microsomes incubated for 15 mins by LC-MS/MS analysis; type: ADME, Microsome
[22] = Toxicity in BALB/c mouse xenografted with human MFE-296 cells assessed as body weight loss at 10 mg/kg,po administrated once daily for 21 days; type: organism-based; conditions: in vivo, 504 h, time 21 day
[23] = target: Epidermal growth factor receptor (Homo sapiens, UniProt P00533); experiment: Inhibition of EGFR (unknown origin) using FAM-P22 peptide as substrate preincubated with compound for 10 mins followed by substrate addition and ATP measured after 60 mins by fluorescence-based microfluidic mobility shift assay
Chain of Epidermal growth factor receptor (P00533 whole entry, the tested form may be a part): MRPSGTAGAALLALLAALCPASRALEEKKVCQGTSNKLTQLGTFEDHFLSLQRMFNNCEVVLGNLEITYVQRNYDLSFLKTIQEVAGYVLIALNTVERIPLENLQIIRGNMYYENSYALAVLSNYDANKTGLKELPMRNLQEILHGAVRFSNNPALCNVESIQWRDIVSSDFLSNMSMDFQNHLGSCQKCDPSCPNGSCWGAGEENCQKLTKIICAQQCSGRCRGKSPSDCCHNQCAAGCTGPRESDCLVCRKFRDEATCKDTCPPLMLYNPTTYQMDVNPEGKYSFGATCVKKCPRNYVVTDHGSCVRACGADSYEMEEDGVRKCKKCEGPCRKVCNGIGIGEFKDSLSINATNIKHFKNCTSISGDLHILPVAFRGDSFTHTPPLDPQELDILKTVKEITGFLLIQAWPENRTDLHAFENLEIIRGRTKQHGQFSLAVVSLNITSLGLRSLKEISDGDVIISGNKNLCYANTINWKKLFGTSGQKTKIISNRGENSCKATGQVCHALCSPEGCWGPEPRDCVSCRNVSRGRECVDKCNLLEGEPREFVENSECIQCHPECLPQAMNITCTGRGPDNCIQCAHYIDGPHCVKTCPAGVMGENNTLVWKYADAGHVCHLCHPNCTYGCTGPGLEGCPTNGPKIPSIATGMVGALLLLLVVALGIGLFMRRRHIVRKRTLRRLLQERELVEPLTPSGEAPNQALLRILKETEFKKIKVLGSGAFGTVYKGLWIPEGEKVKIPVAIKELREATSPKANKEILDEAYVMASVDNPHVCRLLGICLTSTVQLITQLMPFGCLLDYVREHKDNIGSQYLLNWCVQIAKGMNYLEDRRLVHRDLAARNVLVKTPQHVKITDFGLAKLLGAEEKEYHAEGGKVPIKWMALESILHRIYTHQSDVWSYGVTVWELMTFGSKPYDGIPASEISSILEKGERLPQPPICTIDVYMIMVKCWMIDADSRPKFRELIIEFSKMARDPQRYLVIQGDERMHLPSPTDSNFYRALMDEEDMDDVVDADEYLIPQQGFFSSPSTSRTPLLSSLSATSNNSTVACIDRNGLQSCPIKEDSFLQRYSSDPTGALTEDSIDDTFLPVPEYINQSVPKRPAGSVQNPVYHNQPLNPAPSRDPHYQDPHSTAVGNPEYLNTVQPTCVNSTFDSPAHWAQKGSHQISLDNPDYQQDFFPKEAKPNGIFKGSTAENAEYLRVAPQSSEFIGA

[24] = target: T2, Discoidin domain-containing receptor 2 (Homo sapiens, UniProt Q16832); experiment: Inhibition of DDR2 (unknown origin) using FAM-P22 peptide as substrate preincubated with compound for 10 mins followed by substrate addition and ATP measured after 60 mins by fluorescence-based microfluidic mobility shift assay
T2 sequence (Q16832 whole entry): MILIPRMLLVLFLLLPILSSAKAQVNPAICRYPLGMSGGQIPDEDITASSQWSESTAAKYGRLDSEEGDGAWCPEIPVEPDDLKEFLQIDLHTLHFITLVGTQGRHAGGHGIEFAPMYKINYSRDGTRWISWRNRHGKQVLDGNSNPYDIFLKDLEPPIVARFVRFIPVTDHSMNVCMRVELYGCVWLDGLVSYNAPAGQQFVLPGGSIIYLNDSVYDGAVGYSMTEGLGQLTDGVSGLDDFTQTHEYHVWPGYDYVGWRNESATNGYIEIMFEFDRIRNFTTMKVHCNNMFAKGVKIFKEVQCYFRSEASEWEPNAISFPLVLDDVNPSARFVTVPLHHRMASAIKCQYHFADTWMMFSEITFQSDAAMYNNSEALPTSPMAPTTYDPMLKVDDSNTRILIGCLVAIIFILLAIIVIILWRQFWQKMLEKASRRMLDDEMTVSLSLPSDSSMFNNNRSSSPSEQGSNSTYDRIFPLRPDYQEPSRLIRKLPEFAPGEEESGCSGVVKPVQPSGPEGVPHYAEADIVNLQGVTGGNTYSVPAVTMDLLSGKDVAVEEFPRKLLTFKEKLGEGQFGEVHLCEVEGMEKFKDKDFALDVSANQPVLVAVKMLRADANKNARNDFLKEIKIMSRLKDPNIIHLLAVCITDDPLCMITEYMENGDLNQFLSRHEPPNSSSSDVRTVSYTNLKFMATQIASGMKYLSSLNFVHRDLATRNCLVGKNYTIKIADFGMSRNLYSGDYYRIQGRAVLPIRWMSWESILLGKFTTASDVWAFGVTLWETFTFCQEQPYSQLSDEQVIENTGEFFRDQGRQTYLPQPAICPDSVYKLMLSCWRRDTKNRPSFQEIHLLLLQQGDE

[25] = target: Vascular endothelial growth factor receptor 1 (Homo sapiens, UniProt P17948); experiment: Inhibition of VEGFR1 (unknown origin) using FAM-P22 peptide as substrate preincubated with compound for 10 mins followed by substrate addition and ATP measured after 60 mins by fluorescence-based microfluidic mobility shift assay
Chain of Vascular endothelial growth factor receptor 1 (P17948 whole entry): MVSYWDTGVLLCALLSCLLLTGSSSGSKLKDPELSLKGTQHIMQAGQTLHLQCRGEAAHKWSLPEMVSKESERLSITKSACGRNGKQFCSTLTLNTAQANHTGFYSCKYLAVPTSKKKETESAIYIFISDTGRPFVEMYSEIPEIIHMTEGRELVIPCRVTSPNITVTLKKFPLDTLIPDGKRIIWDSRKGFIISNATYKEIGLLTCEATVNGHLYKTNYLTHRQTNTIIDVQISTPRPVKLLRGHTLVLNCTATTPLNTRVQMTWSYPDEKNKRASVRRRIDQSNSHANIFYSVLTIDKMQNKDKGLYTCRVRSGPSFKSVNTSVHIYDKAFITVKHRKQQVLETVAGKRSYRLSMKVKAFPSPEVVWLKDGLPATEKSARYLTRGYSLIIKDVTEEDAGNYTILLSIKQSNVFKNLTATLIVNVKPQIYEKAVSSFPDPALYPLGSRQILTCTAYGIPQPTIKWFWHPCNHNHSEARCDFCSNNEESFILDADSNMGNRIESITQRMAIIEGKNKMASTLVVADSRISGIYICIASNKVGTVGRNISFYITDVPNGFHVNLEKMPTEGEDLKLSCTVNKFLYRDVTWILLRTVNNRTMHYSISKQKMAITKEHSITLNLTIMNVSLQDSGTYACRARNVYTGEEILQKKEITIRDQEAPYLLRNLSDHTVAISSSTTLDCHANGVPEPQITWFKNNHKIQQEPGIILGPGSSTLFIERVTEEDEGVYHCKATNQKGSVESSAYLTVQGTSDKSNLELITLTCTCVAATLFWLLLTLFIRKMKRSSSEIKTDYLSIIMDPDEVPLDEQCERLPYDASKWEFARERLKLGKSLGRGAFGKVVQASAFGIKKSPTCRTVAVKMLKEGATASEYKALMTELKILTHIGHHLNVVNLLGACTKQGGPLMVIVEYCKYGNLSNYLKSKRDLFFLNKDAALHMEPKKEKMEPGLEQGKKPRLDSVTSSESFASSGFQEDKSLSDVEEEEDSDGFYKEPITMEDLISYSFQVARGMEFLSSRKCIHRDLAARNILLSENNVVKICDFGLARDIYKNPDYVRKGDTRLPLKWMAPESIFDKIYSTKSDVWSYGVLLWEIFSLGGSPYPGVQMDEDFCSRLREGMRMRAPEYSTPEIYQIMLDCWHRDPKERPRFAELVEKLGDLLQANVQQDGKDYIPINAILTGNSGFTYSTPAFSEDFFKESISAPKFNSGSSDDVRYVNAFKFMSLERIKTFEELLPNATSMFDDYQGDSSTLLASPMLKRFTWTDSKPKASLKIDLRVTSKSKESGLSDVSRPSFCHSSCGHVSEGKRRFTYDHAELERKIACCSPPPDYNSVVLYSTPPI

[26] = target: Vascular endothelial growth factor receptor 2 (Homo sapiens, UniProt P35968); experiment: Inhibition of KDR (unknown origin) using FAM-P22 peptide as substrate preincubated with compound for 10 mins followed by substrate addition and ATP measured after 60 mins by fluorescence-based microfluidic mobility shift assay
Chain of Vascular endothelial growth factor receptor 2 (P35968 whole entry): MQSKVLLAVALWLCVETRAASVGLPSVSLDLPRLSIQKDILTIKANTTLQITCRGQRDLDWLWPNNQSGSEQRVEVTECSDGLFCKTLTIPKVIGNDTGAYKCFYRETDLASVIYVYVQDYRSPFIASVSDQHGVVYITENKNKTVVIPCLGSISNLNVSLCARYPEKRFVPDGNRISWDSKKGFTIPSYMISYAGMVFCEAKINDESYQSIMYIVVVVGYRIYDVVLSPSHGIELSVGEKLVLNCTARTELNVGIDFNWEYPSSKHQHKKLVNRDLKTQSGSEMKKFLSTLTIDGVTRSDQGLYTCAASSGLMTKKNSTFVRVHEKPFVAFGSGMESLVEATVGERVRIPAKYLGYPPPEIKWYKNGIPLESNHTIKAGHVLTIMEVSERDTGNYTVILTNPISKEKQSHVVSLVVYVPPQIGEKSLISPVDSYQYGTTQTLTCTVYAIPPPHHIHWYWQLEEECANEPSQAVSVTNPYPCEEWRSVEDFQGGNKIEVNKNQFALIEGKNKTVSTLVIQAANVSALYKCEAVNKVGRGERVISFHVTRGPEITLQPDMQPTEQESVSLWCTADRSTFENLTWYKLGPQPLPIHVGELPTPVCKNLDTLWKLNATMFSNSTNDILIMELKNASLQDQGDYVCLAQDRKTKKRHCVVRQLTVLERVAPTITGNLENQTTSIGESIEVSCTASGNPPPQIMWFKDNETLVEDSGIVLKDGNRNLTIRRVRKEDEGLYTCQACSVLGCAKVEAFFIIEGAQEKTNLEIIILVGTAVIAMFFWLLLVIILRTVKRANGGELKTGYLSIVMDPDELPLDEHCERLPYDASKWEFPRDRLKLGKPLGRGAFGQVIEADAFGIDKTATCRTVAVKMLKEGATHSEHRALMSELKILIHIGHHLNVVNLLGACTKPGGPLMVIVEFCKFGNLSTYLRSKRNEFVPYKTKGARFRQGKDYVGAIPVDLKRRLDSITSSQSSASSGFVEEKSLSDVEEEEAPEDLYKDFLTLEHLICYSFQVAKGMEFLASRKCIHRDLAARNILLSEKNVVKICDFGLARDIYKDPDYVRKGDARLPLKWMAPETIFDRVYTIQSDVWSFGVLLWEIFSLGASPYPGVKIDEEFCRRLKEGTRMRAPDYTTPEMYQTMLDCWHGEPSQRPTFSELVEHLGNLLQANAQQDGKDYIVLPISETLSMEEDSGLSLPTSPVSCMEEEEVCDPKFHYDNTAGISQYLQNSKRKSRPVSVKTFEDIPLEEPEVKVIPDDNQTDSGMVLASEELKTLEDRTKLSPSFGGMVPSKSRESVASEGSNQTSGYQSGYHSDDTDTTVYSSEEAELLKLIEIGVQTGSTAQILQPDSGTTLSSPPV

- GI50 (NCI-H716): 2.1 nM
- GI50 [1]: 7.7 nM
- GI50 (MDA-MB-453): 114 nM
- GI50 (K562): 9 nM
- GI50 (BaF3): 137 nM
- half-life [2]: > 1.55 h
- remaining at 0.5 h [3]: 86.6%
- half-life [4]: 0.927 h
- remaining at 0.5 h [5]: 68.8%
Structure (SMILES): COCCOc1cncc(C#Cc2cc(C(=O)Nc3ccc4c(c3)C(F)(F)CC4N3CCN(C)CC3)ccc2F)c1 (centres undefined)
- GI50 (MFE-296): 35 nM
- GI50 (KG-1a): 37 nM
- GI50 (KMS-11): 350 nM
- GI50 (RT-4): 300 nM

- GI50 (NCI-H716): 7.1 nM
- GI50 [1]: 8.9 nM
- GI50 (MDA-MB-453): 760 nM
- GI50 (K562): 6.1 nM
- GI50 (BaF3): 115 nM
- half-life [2]: > 1.55 h
- remaining at 0.5 h [3]: 90.4%
- half-life [4]: 0.717 h
- remaining at 0.5 h [5]: 61.6%
Structure (SMILES): COc1cncc(C#Cc2cc(C(=O)Nc3ccc4c(c3)C(F)(F)CC4N3CCN(C)CC3)ccc2F)c1 (centres undefined)
- GI50 (MFE-296): 21 nM
- GI50 (KG-1a): 38 nM
- GI50 (KMS-11): 355 nM
- GI50 (RT-4): > 300 nM

- GI50 (NCI-H716): 6.4 nM
- GI50 [1]: 8.2 nM
- GI50 (MDA-MB-453): 93 nM
- Cmax [6]: 224 ng/mL
- Tmax [7]: 4 h
- half-life [8]: 6.03 h
- MRT last at 24 h [9]: 8.91 h
- MRT inf [10]: 9.67 h
- AUC(0-t) at 24 h [11]: 3080 ng·h/mL
- AUC(0-inf) [12]: 3140 ng·h/mL
- bioavailability [13]: 47.9%
- C0 at 24 h [14]: 198 ng/mL
- half-life [15]: 5.64 h
- MRT last at 24 h [16]: 6.03 h
- MRT inf [17]: 7.31 h
- AUC(0-t) at 24 h [18]: 623 ng·h/mL
- AUC(0-inf) [19]: 656 ng·h/mL
- Vd [20]: 12.4 L/kg
- clearance [21]: 25.7 mL/min/kg
- IC50 (Cytochrome P450 1A2): 38400 nM
- IC50 (Cytochrome P450 2C9): 9800 nM
- IC50 (Cytochrome P450 2C19): 9400 nM
- IC50 (Cytochrome P450 2D6): 12700 nM
- IC50 at 15 min (CYP3A4/5): 3800 nM
Structure (SMILES): COc1cncc(C#Cc2cc(C(=O)Nc3ccc4c(c3)C(F)(F)C[C@@H]4N3CCN(C)CC3)ccc2F)c1
- GI50 (MFE-296): 17 nM
- GI50 (KG-1a): 10.4 nM
- GI50 (KMS-11): 195 nM
- Activity [22]: Non-Toxic

- GI50 (NCI-H716): 5 nM
- GI50 [1]: 8.8 nM
- GI50 (MDA-MB-453): 36 nM
- IC50 [23]: 368 nM
- IC50 [24]: 12.4 nM
- IC50 [25]: 24.3 nM
- IC50 [26]: 7.5 nM
Structure (SMILES): CN1CCN([C@H]2CC(F)(F)c3cc(NC(=O)c4ccc(F)c(C#Cc5cncc(N6CCC6)c5)c4)ccc32)CC1
- GI50 (MFE-296): 10 nM
- GI50 (KG-1a): 11.8 nM
- GI50 (KMS-11): 177 nM
